The text below walks through data of article PMC11302339, “A series of pyrimidine-based antifungals with anti-mold activity disrupt ER function in Aspergillus fumigatus” (Microbiology Spectrum, 2024).

Converted amounts (≈) assume the structure as drawn. Where two headings read alike, the source gives them in different places.

One series has as its system A. fumigatus CEA10. Description: ER stress interactions on GMM plates. The format is cell-based, Aspergillus fumigatus. The conditions noted are these: 1 µg/mL 1 on GMM. The procedure: For Aspergillus fumigatus, 5 µL of 1 × 10^4 CEA10 conidia was spotted at the center of GMM plates containing DMSO or 1 µg/mL 1 in combination with DTT, brefeldin A, or tunicamycin. Plates were incubated at 37°C for 72 hours. Representative images of two independent experiments with three biological replicates each were obtained. For Ire1 strains, the cells were prepared as described above but were incubated at 30°C.

A further series concerns HeLa cells. Description: Cytotoxicity by LDH release. The conditions noted are these: 24 hours. The format is cell-based, human. The procedure: (§1) HepG2 [American Type Culture Collection (ATCC), HB-8065], HeLa (ATCC, CCL-2), and A549 (ATCC, CCL-185) cells were maintained and cultured in Dulbecco’s modified Eagle medium (Gibco, Cat # 11965–092) with 10% FBS and 1% penicillin/streptomycin at 37°C with 5% CO2. Cells were seeded in 96-well plates at a density of 1.25 × 10^4 cells/well and incubated overnight at 37°C with 5% CO2; then, media were removed and replaced with media containing a twofold drug dilution series with equal DMSO across all wells. Cells were incubated for an additional 24 hours, then the supernatant was removed and used to quantify lactate dehydrogenase release using the CyQuant LDH assay kit (Invitrogen, Cat # C20300) following the manufacturers’ directions. LDH was normalized to a maximum lysis control treated with Triton-X. HeLa and A549 cells were purchased in 2023, and the cells used for these studies were directly from fresh vials. HepG2 cells for these studies were used from a fresh, low passage (P3) vial saved directly from purchased stocks.

The test system of the next series is HepG2 cells. Briefly: Cytotoxicity by LDH release. The format is cell-based, human. The conditions noted are these: HepG2, 24 hours. Here is the method:
as §1

The next series concerns A549 cells. Description: Cytotoxicity by LDH release. The conditions noted are these: A549, 24 hours. In kind it is cell-based, human. Here is the method:
as §1

The next series deals with C. albicans. Description: MIC testing (CLSI broth dilution). In kind it is cell-based, Candida albicans. The procedure:
MICs were determined using Clinical and Laboratory Standards Institute guidelines ([48], [49]). All yeasts were cultured overnight in 3 mL YPD at 30°C, then washed twice in sterile phosphate-buffered saline (PBS). Twofold serial dilutions of each drug were prepared in RMPI + MOPS, then 1 × 10^3 cells were added per well. For mold species, wells were inoculated with 1.25 × 10^3 conidia per well. Plates were incubated at 37°C for 24 (Candida spp. and S. cerevisiae), 48 (Aspergillus spp., M. circinelloides, S. apiospermum, and L. prolificans), or 72 (C. neoformans and F. oxysporum) hours. S. cerevisiae BY4743 MICs were tested in YPD due to nutritional requirements of this strain. Each assay was performed in technical duplicate in at least two independent experiments performed on different days.

The subject of series [1] is A. fumigatus UPR-responsive genes. Briefly: A. fumigatus UPR gene expression (qRT-PCR). The format is cell-based, Aspergillus fumigatus. Here is the method: We cultured 5 × 10^6 CEA10 conidia/mL in liquid GMM for 18 hours at 37°C with shaking at 250 rpm. Cultures were treated with either DMSO or 16 µg/mL 1 for 2 hours at 37°C, 250 rpm. Then 1 mM DTT or water was added, and cultures were incubated for an additional hour. Mycelia were collected with vacuum filtration and immediately frozen with liquid nitrogen. Tissue was lyophilized then ground with glass beads with a bead beater. RNA was extracted in 1 mL of TRIazole solution (Life Technologies, Cat # 15596026), then RNA was purified with two rounds of chloroform extraction. Five micrograms of RNA was treated with TURBO DNA-free kit (Invitrogen, Cat # AM1907) according to the manufacturer’s protocol. Five hundred nanograms of DNAse-treated RNA was used for cDNA synthesis with iScript cDNA synthesis kit (BioRad, Cat # 1708891), then cDNA was diluted 1:5 with ddH2O. Quantitative real time PCR analysis was performed in 20 µL reactions using 2 µL of dilute cDNA per reaction with iQ SYBR Green Supermix (BioRad). Samples were run on a BioRad CFX Connect using a three-step amplification with 54°C annealing temperature and melt curve analysis. Gene expression is normalized to tubA and tef1 expression. Gene expression was performed in biological triplicate. Primers to detect HacA splicing and targets were designed as previously described ([51]).
On the technique in general: Quantitative PCR measures a nucleic acid by following its amplification.

Setting [2] is: combination: 16 µg/mL 1 for 2 hours, then 1 mM DTT for 1 hour.
Where [3] appears, read: single agent (16 µg/mL 1, or 1 mM DTT for 1 hour), normalized to DMSO.

Broadly, the MIC is the least concentration at which growth counts as inhibited. For the molecule `OC1CC(c2cc(N3CCC(CCc4ccccc4)CC3)ncn2)C1` (stereo not shown) [compound 1], the “interaction with DTT” value in the series with A. fumigatus CEA10 (37°C, 72 hours) is reported as “synergistic”. Besides, the “interaction with brefeldin A” value in the series with A. fumigatus CEA10 (37°C, 72 hours) is listed as “modest antagonism”. Moreover, the interaction with tunicamycin result in the series on A. fumigatus CEA10 (10 µg/mL tunicamycin) is on record as “slight antagonism”; in the series with A. fumigatus CEA10 (50 µg/mL tunicamycin), “no interaction”. Besides, the “LD50 (LDH release)” value with HeLa cells turned out to be 146 µg/mL; with HepG2 cells, 111 µg/mL; with A549 cells it was 198 µg/mL. The minimal inhibitory concentration (MIC) in the series on C. albicans (Candida albicans, strain SC5314, CLSI conditions, 24 h, read-out: MIC) was determined as 64 µg/mL (≈ 190 µM); in the series with C. albicans (Candida albicans, strain not named, read-out: MIC) it was 64 µg/mL (≈ 190 µM); in the series with C. albicans (strain TWO7241, azole-resistant clinical isolate, CLSI conditions) it was 64 µg/mL (≈ 190 µM); with C. albicans (strain TWO7243, azole-resistant clinical isolate, CLSI conditions) it was 64 µg/mL (≈ 190 µM). Besides, the “increase in HacA^A splicing” value in series [1] (setting [2]) came to 17 fold. Besides, the “increase in HacA^B” value in series [1] (setting [2]) is given as 3 fold. In series [1] (setting [3]), the “increase in BipA expression” value is 2 fold. Besides, the “increase in PdiA expression” value in series [1] (setting [3]) is given as “no change”. For the same molecule, in series [1] (setting [3]), the “increase of spliced HacA (HacA^A)” value is on record as “about threefold”.
